Source: patent US20230041743A1, “1,8-NAPHTHYRIDIN-2-ONE COMPOUNDS FOR THE TREATMENT OF AUTOIMMUNE DISEASE” (Hoffmann-La Roche Inc., priority 2019, published 2023)

The molecules below were run against T1, human TLR9 (Homo sapiens, UniProt Q9NR96) (assay: HEK293-Blue-hTLR-9 cells assay (SEAP reporter, ODN2006 stimulation)). Settings: HEK293-Blue-hTLR9 cells, ODN2006 ligand, 20 hrs incubation; read-out: HEK/hTLR9 IC50.
T1 construct: host or cells: HEK293 (HEK-Blue hTLR9)
T1 sequence (Q9NR96 26-1032): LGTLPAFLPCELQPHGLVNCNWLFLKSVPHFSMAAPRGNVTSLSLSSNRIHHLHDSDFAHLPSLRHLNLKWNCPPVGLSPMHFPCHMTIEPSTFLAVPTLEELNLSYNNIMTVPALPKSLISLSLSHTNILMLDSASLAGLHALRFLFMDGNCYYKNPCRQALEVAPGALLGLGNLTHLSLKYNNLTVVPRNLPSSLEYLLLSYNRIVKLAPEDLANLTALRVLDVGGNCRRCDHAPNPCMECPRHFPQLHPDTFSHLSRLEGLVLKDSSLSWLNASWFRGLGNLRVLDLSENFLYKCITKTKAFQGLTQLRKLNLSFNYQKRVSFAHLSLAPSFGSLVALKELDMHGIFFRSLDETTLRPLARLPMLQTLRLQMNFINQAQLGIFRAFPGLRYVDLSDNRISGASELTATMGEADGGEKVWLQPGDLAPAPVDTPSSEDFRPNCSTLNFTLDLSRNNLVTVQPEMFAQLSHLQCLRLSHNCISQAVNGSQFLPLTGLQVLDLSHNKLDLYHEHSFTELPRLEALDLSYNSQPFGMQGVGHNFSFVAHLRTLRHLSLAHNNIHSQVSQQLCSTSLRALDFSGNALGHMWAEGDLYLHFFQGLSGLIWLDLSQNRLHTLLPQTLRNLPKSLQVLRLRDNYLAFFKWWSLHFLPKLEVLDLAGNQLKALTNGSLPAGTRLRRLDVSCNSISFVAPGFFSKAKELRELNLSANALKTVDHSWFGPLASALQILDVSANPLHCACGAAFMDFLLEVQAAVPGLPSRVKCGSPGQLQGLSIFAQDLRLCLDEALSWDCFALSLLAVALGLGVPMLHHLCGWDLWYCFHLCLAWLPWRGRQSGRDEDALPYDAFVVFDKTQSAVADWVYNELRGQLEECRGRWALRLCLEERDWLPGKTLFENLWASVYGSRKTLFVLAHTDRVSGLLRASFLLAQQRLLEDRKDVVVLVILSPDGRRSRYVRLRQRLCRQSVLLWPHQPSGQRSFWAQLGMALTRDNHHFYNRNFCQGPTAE
Assay type: cell-based
Excerpt: HEK293-Blue-hTLR-9 Cells Assay:
A stable HEK293-Blue-hTLR-9 cell line was purchased from InvivoGen (Cat. #: hkb-htlr9, San Diego, Calif., USA). These cells were originally designed for studying the stimulation of human TLR9 by monitoring the activation of NF-κB. A SEAP (secreted embryonic alkaline phosphatase) reporter gene was placed under the control of the IFN-β minimal promoter fused to five NF-κB and AP-1-binding sites. The SEAP was induced by activating NF-κB and AP-1 via stimulating HEK-Blue hTLR9 cells with TLR9 ligands. Therefore the reporter expression was declined by TLR9 antagonist under the stimulation of a ligand, such as ODN2006 (Cat. #: tlrl-2006-1, Invivogen, San Diego, Calif., USA), for incubation of 20 hrs. The cell culture supernatant SEAP reporter activity was determined using QUANTI-Blue™ kit (Cat. #: rep-qb1, Invivogen, San Diego, Calif., USA) at a wavelength of 640 nm, a detection medium that turns purple or blue in the presence of alkaline phosphatase.
HEK293-Blue-hTLR9 cells were incubated at a density of 250,000˜450,000 cells/mL in a volume of 170 μL in a 96-well plate in Dulbecco's Modified Eagle's medium (DMEM) containing 4.5 g/L glucose, 50 U/mL penicillin, […], 2 mM L-glutamine, 10% (v/v) heat-inactivated fetal bovine serum with addition of 20 μL test compound in a serial dilution in the presence of final DMSO at 1% and 10 μL of 20 uM ODN2006 in above DMEM, perform incubation under 37° C. in a CO2 incubator for 20 hrs. Then 20 μL of the supernatant from each well was incubated with 180 μL Quanti-blue substrate solution at 37° C. for 2 h and the absorbance was read at 620˜655 nm using a spectrophotometer. The signaling pathway that TLR9 activation leads to downstream NF-κB activation has been widely accepted, and therefore similar reporter assay was modified for evaluating TLR9 antagonist.

Structure (SMILES) | IC50
COC[C@@H]1CNCCN1c1ccc2c(c1)CN1[C@H](C)CN(c3cc(=O)n(C)c4ncccc34)C[C@H]21 [Example 10, 4-[(4R,10bS)-8-[(2S)-2-(methoxymethyl)piperazin-1-yl]-4-methyl-3,4,6,10b-tetrahydro-1H-pyrazino[2,1-a]isoindol-2-yl]-1-methyl-1,8-naphthyridin-2-one] | 248 nM
C[C@@H]1CN(c2cc(=O)n(C)c3ncccc23)C[C@@H]2c3ccc(N4CC5(CNCCO5)C4)cc3CN12 [Example 3, 4-[(4R,10bS)-4-methyl-8-(5-oxa-2,8-diazaspiro[3.5]nonan-2-yl)-3,4,6,10b-tetrahydro-1H-pyrazino[2,1-a]isoindol-2-yl]-1-methyl-1,8-naphthyridin-2-one] | 325 nM
CO[C@H]1CCN(c2ccc3c(c2)CN2[C@H](C)CN(c4cc(=O)n(C)c5ncccc45)C[C@H]32)C[C@@H]1N [Example 9, 4-[(4R,10bS)-8-[(3S,4S)-3-amino-4-methoxy-1-piperidyl]-4-methyl-3,4,6,10b-tetrahydro-1H-pyrazino[2,1-a]isoindol-2-yl]-1-methyl-1,8-naphthyridin-2-one] | 266 nM
C[C@@H]1CN(c2cc(=O)n(C)c3ncccc23)C[C@@H]2c3ccc(N4CC(C)(N)C4)cc3CN12 [Example 1, 4-[(4R,10bS)-8-(3-amino-3-methyl-azetidin-1-yl)-4-methyl-3,4,6,10b-tetrahydro-1H-pyrazino[2,1-a]isoindol-2-yl]-1-methyl-1,8-naphthyridin-2-one] | 262 nM
C[C@@H]1CN(c2cc(=O)n(C)c3ncccc23)C[C@@H]2c3ccc([C@H]4C[C@H]5COC[C@@H](C4)N5)cc3CN12 [Example 28A, 4-[(4R,10bS)-4-methyl-8-(endo-3-oxa-9-azabicyclo[3.3.1]nonan-7-yl)-3,4,6,10b-tetrahydro-1H-pyrazino[2,1-a]isoindol-2-yl]-1-methyl-1,8-naphthyridin-2-one] | 153 nM
C[C@@H]1CN(c2cc(=O)n(C)c3ncccc23)C[C@@H]2c3ccc([C@@H]4C[C@H]5COC[C@@H](C4)N5)cc3CN12 [Example 28B, 4-[(4R,10bS)-4-methyl-8-(exo-3-oxa-9-azabicyclo[3.3.1]nonan-7-yl)-3,4,6,10b-tetrahydro-1H-pyrazino[2,1-a]isoindol-2-yl]-1-methyl-1,8-naphthyridin-2-one] | 255 nM
C[C@@H]1CN(c2cc(=O)n(C)c3ncccc23)C[C@@H]2c3ccc(N4CC5CCC(C4)N5)cc3CN12 [Example 21, 4-[(4R,10bS)-8-(3,8-diazabicyclo[3.2.1]octan-3-yl)-4-methyl-3,4,6,10b-tetrahydro-1H-pyrazino[2,1-a]isoindol-2-yl]-1-methyl-1,8-naphthyridin-2-one] | 138 nM
CCn1c(=O)cc(N2C[C@@H](C)N3Cc4cc(N5C[C@@H](N)[C@H](OC)C5)ccc4[C@H]3C2)c2cccnc21 [Example 29, 4-[(4R,10bS)-8-[(3R,4R)-3-amino-4-methoxy-pyrrolidin-1-yl]-4-methyl-3,4,6,10b-tetrahydro-1H-pyrazino[2,1-a]isoindol-2-yl]-1-ethyl-1,8-naphthyridin-2-one] | 340 nM

The remaining molecules from weak to strong by IC50, led by results:

IC50 | Structure (SMILES)
247 nM | C[C@@H]1CN(c2cc(=O)n(C)c3ncccc23)C[C@@H]2c3ccc(N4C[C@@H](N)[C@@H](F)C4)cc3CN12 [Example 7, 4-[(4R,10bS)-8-[(3R,4S)-3-amino-4-fluoro-pyrrolidin-1-yl]-4-methyl-3,4,6,10b-tetrahydro-1H-pyrazino[2,1-a]isoindol-2-yl]-1-methyl-1,8-naphthyridin-2-one]
222 nM | C[C@@H]1CNCCN1c1ccc2c(c1)CN1[C@H](C)CN(c3cc(=O)n(C)c4ncccc34)C[C@H]21 [Example 17, 4-[(4R,10bS)-4-methyl-8-[(2R)-2-methylpiperazin-1-yl]-3,4,6,10b-tetrahydro-1H-pyrazino[2,1-a]isoindol-2-yl]-1-methyl-1,8-naphthyridin-2-one]
197 nM | C[C@@H]1CN(c2cc(=O)n(C)c3ncccc23)C[C@@H]2c3ccc(N4C[C@H]5NCCO[C@@H]5C4)cc3CN12 [Example 6, 4-[(4R,10bS)-8-[(4aR,7aR)-3,4,4a,5,7,7a-hexahydro-2H-pyrrolo[3,4-b][1,4]oxazin-6-yl]-4-methyl-3,4,6,10b-tetrahydro-1H-pyrazino[2,1-a]isoindol-2-yl]-1-methyl-1,8-naphthyridin-2-one]
186 nM | C[C@@H]1CN(c2cc(=O)n(C)c3ncccc23)C[C@@H]2c3ccc(N4CCN[C@@H](C)C4)cc3CN12 [Example 13, 4-[(4R,10bS)-4-methyl-8-[(3S)-3-methylpiperazin-1-yl]-3,4,6,10b-tetrahydro-1H-pyrazino[2,1-a]isoindol-2-yl]-1-methyl-1,8-naphthyridin-2-one]
163 nM | C[C@@H]1CN(c2cc(=O)n(C)c3ncccc23)C[C@@H]2c3ccc(N4CCC(C)(N)CC4)cc3CN12 [Example 18, 4-[(4R,10bS)-8-(4-amino-4-methyl-1-piperidyl)-4-methyl-3,4,6,10b-tetrahydro-1H-pyrazino[2,1-a]isoindol-2-yl]-1-methyl-1,8-naphthyridin-2-one]
156 nM | C[C@@H]1CN(c2cc(=O)n(C)c3ncccc23)C[C@@H]2c3ccc(C4CCNCC4)cc3CN12 [Example 24, 4-[(4R,10bS)-4-methyl-8-(4-piperidyl)-3,4,6,10b-tetrahydro-1H-pyrazino[2,1-a]isoindol-2-yl]-1-methyl-1,8-naphthyridin-2-one]
132 nM | C[C@@H]1CN(c2cc(=O)n(C)c3ncccc23)C[C@@H]2c3ccc(C4CCNC4)cc3CN12 (stereo partly drawn) [Example 26, 4-[(4R,10bS)-4-methyl-8-pyrrolidin-3-yl-3,4,6,10b-tetrahydro-1H-pyrazino[2,1-a]isoindol-2-yl]-1-methyl-1,8-naphthyridin-2-one]
127 nM | C[C@@H]1CN(c2cc(=O)n(C)c3ncccc23)C[C@@H]2c3ccc(N4CC[C@@](C)(N)C4)cc3CN12 [Example 4, 4-[(4R,10bS)-8-[(3R)-3-amino-3-methyl-pyrrolidin-1-yl]-4-methyl-3,4,6,10b-tetrahydro-1H-pyrazino[2,1-a]isoindol-2-yl]-1-methyl-1,8-naphthyridin-2-one]
116 nM | C[C@@H]1CN(c2cc(=O)n(C)c3ncccc23)C[C@@H]2c3ccc(N4C[C@@H]5C[C@H]4CN5)cc3CN12 [Example 19, 4-[(4R,10bS)-8-[(1S,4S)-2,5-diazabicyclo[2.2.1]heptan-2-yl]-4-methyl-3,4,6,10b-tetrahydro-1H-pyrazino[2,1-a]isoindol-2-yl]-1-methyl-1,8-naphthyridin-2-one]
113 nM | C[C@@H]1CN(c2cc(=O)n(C)c3ncccc23)C[C@@H]2c3ccc(N4CCOC[C@H](N)C4)cc3CN12 [Example 22, 4-[(4R,10bS)-8-[(6R)-6-amino-1,4-oxazepan-4-yl]-4-methyl-3,4,6,10b-tetrahydro-1H-pyrazino[2,1-a]isoindol-2-yl]-1-methyl-1,8-naphthyridin-2-one]
99 nM | C[C@@H]1CN(c2cc(=O)n(C)c3ncccc23)C[C@@H]2c3ccc([C@H]4CC[C@H](N5CCOCC5)CC4)cc3CN12 [Example 27A, 4-[(4R,10bS)-4-methyl-8-(trans-4-morpholinocyclohexyl)-3,4,6,10b-tetrahydro-1H-pyrazino[2,1-a]isoindol-2-yl]-1-methyl-1,8-naphthyridin-2-one]
